Measurements from US20190351076A1, “TUMOR CELL XENOGRAFT MODEL IN ZEBRAFISH, AND METHODS OF CONSTRUCTING AND USING THE SAME” (NANJING EMORY BIOTECHNOLOGY CO., LTD., priority 2017, published 2019).

Experiments:
zebrafish embryos = zebrafish embryos two days after fertilization, treated for 3 days
Protocol: For the quantitative analysis, the antitumor effect is calculated according to the following formula: the tumor inhibition rate of the drug=(the fluorescence intensity of the treatment group/the fluorescence intensity of the control group)*100%.
1. Four groups, each group having four randomly selected zebrafish embryos that were two days old after fertilization, were placed in a solution of curcumin containing 0.1% DMSO. The curcumin concentrations were 10 μM, 30 μM, 50 μM, and 70 μM, respectively, and the treatment was continued for 3 days.

[1] = system: patient-derived primary lung cancer cells; assay: Patient-derived lung cancer cell xenograft model in zebrafish, fluorescence quantification; format: in vivo, human; details: 50-μM and 5-μM soak for three days, day 7 after the injection
Protocol: (§1) The patient-derived clinical tissue biopsy that was a surgical specimen of lung cancer was placed in physiological saline. The blood clot, necrotic tissue, fat and connective tissues on the surface of the tumor tissue were removed under aseptic conditions. The tissue was cut by an ophthalmic scissor after sterilization, and washed 2 times with sterile phosphate buffer (pH 7.4). A small amount of phosphate buffer was added, and the tissue was repeatedly cut with an ophthalmic scissor until the tissue became a paste and was about 1 mm^3 in size. 0.25% trypsin was added and the tissue was digested at 37° C. for 10 minutes. […] The cells were resuspended in RPMI-1640 medium containing 10% FBS (fetal calf serum).
(§2) The primary cells obtained by dissociation were stained with CM-Dil, where the final dye concentration was 2 μg/ml, and the staining time was 1 hour. The dye was removed by centrifugation, and the cells were washed with a phosphate buffer and re-suspended to a cell density of 1×10^4/μl.
(§3) The stained cells were filled into a microinjector. […]
Within 4 days after the injection, the growth, metastasis and spread of the cells derived from the patient in the zebrafish were observed under a fluorescence microscopy and photographed. […]

lung cancer = assay: Clinical outcome of drug treatment in the lung cancer patients; format: in vivo, human
A549 = assay: Human lung cancer cell line xenograft model in zebrafish (A549); format: in vivo; details: 50 μM and 5 μM soak for three days, day 7 after injection
[2] = system: patient-derived primary gastric cancer cells; assay: Patient-derived gastric cancer cell xenograft model in zebrafish, fluorescence quantification; format: in vivo, human; details: 4000 μM and 400 μM soak for three days, day 7 after the injection
Protocol: as §1, with “gastric” for “lung”, “mm^3.” for “mm^3 in size.”, “re-suspended” for “resuspended”
as §2, §3
Within 7 days after the injection, the growth, metastasis and spread of the cells derived from the patient in the zebrafish were observed under a fluorescence microscopy and photographed. […]

AGS = assay: Human gastric cancer cell line xenograft model in zebrafish (AGS); format: in vivo; details: 4000 μM and 400 μM soak for three days, day 7 after injection
Protocol: (§4) 4000 μM and 400 μM5-FU were used to soak the zebrafish embryos injected with gastric cancer cell lines (SGC-7901 and AGS) (constructed as in Example 1) for three consecutive days, and 0.1% DMSO was used as a solvent control.
(§5) The red cells were photographed under a fluorescence microscope, and the red fluorescence intensity was quantified by Image Pro Plus software to calculate the anti-tumor effect of 5-FU by a formula: Tumor inhibition rate of the drug=(the fluorescence intensity of the treatment group/the fluorescence intensity of the control group)*100% (see FIG. 4).

SGC-7901 = assay: Human gastric cancer cell line xenograft model in zebrafish (SGC-7901); format: in vivo; details: SGC-7901 xenograft; 4000 μM and 400 μM soak for three days; day 7 after injection
Protocol: as §4, §5

gastric cancer = assay: Clinical outcome of 5-FU treatment in the gastric cancer patients; format: in vivo, human

COc1cc(/C=C/C(=O)CC(=O)/C=C/c2ccc(O)c(OC)c2)ccc1O [curcumin]
highest concentration within the safe range for embryos (zebrafish embryos): 50 µM

COc1cc2ncnc(Nc3ccc(F)c(Cl)c3)c2cc1OCCCN1CCOCC1 [gefitinib]
sensitivity of patient-derived lung cancer cells to gefitinib (tumor inhibition effect) ([1]; *5 and *6 patients): sensitive
sensitivity of patient-derived lung cancer cells to gefitinib ([1]; *7 and *8 patients): not sensitive
clinical effect of gefitinib in the treatment of the patients (lung cancer; *5 and *6 patients with lung cancer): significant
clinical symptoms after treatment (lung cancer; *7 and *8 patients with lung cancer): not significantly improved
highest concentration within the safe range for embryos (zebrafish embryos): 50 µM
sensitivity of lung cancer cell line to gefitinib (A549): sensitive

CC(=O)O[C@@]12CO[C@@H]1C[C@H](O)[C@@]1(C)C(=O)[C@H](O)C3=C(C)[C@@H](OC(=O)[C@H](O)[C@@H](NC(=O)OC(C)(C)C)c4ccccc4)C[C@@](O)([C@@H](OC(=O)c4ccccc4)[C@H]21)C3(C)C [docetaxel]
highest concentration within the safe range for embryos (zebrafish embryos): 10 µM

O=c1[nH]cc(F)c(=O)[nH]1 [5-FU, 5-fluorouracil]
sensitivity of patient-derived gastric cancer cells to 5-FU (tumor inhibition effect) ([2]; #1 and #2 patients): not sensitive
sensitivity of patient-derived gastric cancer cells to 5-FU (tumor proliferation inhibition) ([2]; #3 and #4 patients): sensitive
sensitivity of gastric cancer cell line to 5-FU (AGS): sensitive
sensitivity of gastric cancer cell line to 5-FU (SGC-7901): sensitive
clinical effect of 5-FU in the treatment of the patients (gastric cancer; #1 and #2 patients with gastric cancer): not significant
clinical symptoms after treatment with 5-FU (gastric cancer; #3 and #4 patients with gastric cancer): significantly improved
